Results taken from patent US10548911B2, “Small molecule anti-scarring agents” (UNIVERSITY OF ROCHESTER, priority 2014, dated 2020).
“Also recorded” adds a separate entry of the source.

Columns and labels:
[1] = system: capsular fibroblasts; experiment: Breast implant capsular fibroblasts treated with TGF-β and salinomycin (Western blot, slot blot, morphology); format: cell-based, human; conditions: for Thy1 expression: 250 nM, untreated and TGF-β (2.5 ng/mL) treated cultures
Description: FIG. 9 is a set of images of capsular fibroblasts explanted from primary tissue samples cultured in vitro. Treatment consisted of 48 hours growth in serum-starved media (0.1% fetal bovine serum), followed by administration of vehicle, 2.5 ng/mL transforming growth factor-beta (TGF-β), 250 nM salinomycin (SNC), or TGF-β plus SNC for 72 hours. […] Original magnification 200×.
After treatment, cells were lysed for protein extraction and analysis via Western blot. Data are presented in graph form (FIG. 10A) and as images of Western blots (FIG. 10B). […] All protein expression is relative to β-tubulin levels. At time of cell harvest, media supernatant was also taken and equal volumes run on a slot blot to compare presence of extracellular soluble collagen. In like manner, collagen I increased with TGF- and was reduced with co-administration of SNC. **=p<0.01; ***=p<0.001; ****=p<0.0001.
Peri-implant tissue samples from irradiated (n=4) and non-irradiated (n=9) breast capsules were analyzed for expression of Thy1 mRNA by qRT-PCR (FIG. 8). Additionally, capsular fibroblasts were grown in vitro and treated with the pro-fibrotic cytokine transforming growth factor-β (TGFβ) and the polyether ionophore salinomycin, and analyzed for expression of Thy1, αSMA, fibronectin, and collagen by Western blot (FIG. 9 and FIGS. 10A-B). To investigate the fundamental role of Thy1 in capsular fibroblast/myofibroblast formation, Thy1 expression was depleted using Thy1 siRNA (delivered by lentiviral transduction) (FIGS. 11A-B).

[2] = system: collagen production of TGFβ induced myofibroblasts; experiment: Collagen production assay (collagen I slot blot of culture supernatant); format: cell-based, human; conditions: 72 hours
Description: Cell culture supernatant was collected and transferred (5-20 ul) to PVDF membrane using a slot blot device. The membrane was blocked and probed with a goat anti-collagen antibody (1:5000), washed and incubated with a donkey anti-goat antibody conjugated to HRP. Band intensities were quantified using ImageLab software and values were normalized to vehicle treatments.
(§1) TED fibroblasts were treated with TGFβ (1 ng/ml) in the presence or absence of 10-250 nM salinomycin for 72 hours to allow formation of myofibroblasts. After 72 hours, cells were harvested and analyzed by Western blot. As expected, the fibroblasts robustly responded to TGFβ, expressing high levels of αSMA and calponin (FIG. 2A). […] At 50 nM salinomycin, expression of αSMA was reduced by 4-fold over TGFβ treatment alone. Furthermore, at 250 nM salinomycin, αSMA expression was reduced by approximately 16-fold, to levels at or below untreated fibroblasts. […] Another key role of myofibroblasts in scar formation is the production of collagen. Whether salinomycin could block myofibroblast collagen production was assessed. Cells were treated with TGFβ and salinomycin as above and after 72 hours, culture medium was collected and analyzed for collagen levels using a specific collagen I antibody and slot blot analysis.

[3] = system: p38; conditions: human ovarian cancer, 2-7 uM; cited from earlier work
[4] = system: TGFβ-induced myofibroblast formation in human fibroblasts; experiment: Western blot of myofibroblast markers αSMA and calponin in TGFβ-treated human (TED orbital) fibroblasts; format: cell-based; conditions: for expression of αSMA and calponin: TGFβ; for expression of αSMA and calponin, dose dependence: 10-250 nM
Description: as §1
To test these four compounds, human fibroblasts were treated with TGFβ in the absence or presence of 250 nM of either salinomycin, narasin, clioquinol or monensin for 72 hours. After treatment, cell lysates were harvested and analyzed for the presence of the myofibroblast markers, αSMA and calponin (FIG. 3B).

[5] = system: phospho-p38; experiment: Western blot of phospho-p38 in TGFβ-treated human orbital fibroblasts; format: cell-based; conditions: for reduction of phospho-p38 levels: 250 nM
Description: Therefore, activity of another signaling molecule that is involved in myofibroblast formation, namely the mitogen-activated protein kinase (MAPK), p38, was measured to assess its potential role in the observed results. P38 MAPKs are a class of protein kinases that respond to TGFβ, ultraviolet radiation and other stimuli. Phosphorylation and activation of p38 can lead to numerous downstream signaling pathways, including phosphorylation of Smad proteins.
To further test if salinomycin targets the p38 pathway to block myofibroblast formation, a plasmid encoding a mutant MKK6 (pcDNA3-flag MKK6(glu)) protein was used. MKK6 phosphorylates and thus activates p38 in response to extracellular signals such as TGFβ or other environmental stresses. The MKK6(glu) protein, which harbors glutamate mutations at amino acid residues serine 207 and threonine 211, is constitutively active and thus phosphorylates p38 irrespective of signal (Raingeaud et al., “MKK3- and MKK6-regulated gene expression is mediated by the p38 mitogen-activated protein kinase signal transduction pathway,” Mol. Cell. Biol. 16:1247-1255 (1996), which is hereby incorporated by reference in its entirety). Thus, if salinomycin is blocking the p38 signaling pathway, MKK6(glu) should overcome the effect of salinomycin. MKK6(glu) was first tested using the SBE4-TK-luc reporter plasmid. The luciferase reporter plasmid was introduced into human fibroblasts along with the MKK6(glu) plasmid or a control plasmid (pcDNA3-GFP). Cells were then treated with vehicle, TGFβ or TGFβ plus 250 nM salinomycin. After 24 hours, luciferase activity was measured (FIG. 6A). […] MKK6(glu) was further tested to assess whether it could attenuate the ability of salinomycin to inhibit p38 phosphorylation. Control or MKK6(glu) plasmids were introduced into human fibroblasts by electroporation and then cells were treated with TGFβ for 24 hours. Following treatment, cells were analyzed for flag-MKK6(glu) expression and phospho-p38 by Western blot (FIG. 6B). […] However, MKK6(glu) expression leads to a large induction of phospho-p38, regardless of salinomycin treatment. As a third test, control or MKK6(glu) plasmids were introduced into human fibroblasts by electroporation. After electroporation, cells were induced to form myofibroblasts by TGFβ treatment for 72 hours. Samples were analyzed for expression of flag-MKK6(glu), αSMA, calponin and β-tubulin by Western blot (FIG. 6C).

[6] = system: TGFβ-induced myofibroblast formation in human fibroblasts; experiment: Western blot of myofibroblast markers αSMA and calponin in TGFβ-treated human (TED orbital) fibroblasts; format: cell-based; conditions: 250 nM, 72 hours
[7] = system: primary human lung fibroblasts; experiment: TGFβ-induced myofibroblast formation, αSMA Western blot and cell images, primary human lung fibroblasts; format: cell-based; conditions: HCPT 50 nM or 500 nM, TGFβ, listed as SNC
Description: Human lung fibroblasts were treated with various concentrations of 10-hydroxycamptothecin (HCPT) (50 nM or 500 nM) and induced to form scar-forming myofibroblasts by treating with TGFβ.

[8] = 250 nM plus TGF-β 2.5 ng/mL, 72 hours

CC[C@@H](C(=O)[C@@H](C)[C@@H](O)[C@H](C)[C@@H]1O[C@@H]([C@@H](CC)C(=O)O)CC[C@@H]1C)[C@H]1O[C@]2(C=C[C@@H](O)[C@]3(CC[C@@](C)([C@H]4CC[C@](O)(CC)[C@H](C)O4)O3)O2)[C@H](C)C[C@@H]1C [salinomycin]
Alpha-SMA expression [1, 8]: below basal levels | cell morphology (myofibroblastic differentiation) [1, 8]: appears to reduce the effect of TGF-β | Thy1 expression ([1]; 72 hours): dramatically reduced | Thy1 expression ([1]; 72 hours, listed as SNC): significantly reduced | TGFβ-increased αSMA and collagen I ([1]; explanted capsular fibroblasts, TGFβ plus salinomycin): nearly completely inhibited; also recorded: reduced | collagen production ([2]; 10 nM): decreases | collagen production ([2]; 100 nM): at baseline levels | collagen production ([2]; 250 nM): below baseline levels | collagen I levels, dose dependence ([2]; 10-250 nM): dose-dependent manner | p38 activity [3]: activated | reduction of αSMA expression over TGFβ treatment alone ([4]; 50 nM, TGFβ 1 ng/ml, 72 hours): 4 fold | reduction of αSMA expression over TGFβ treatment alone ([4]; 250 nM, TGFβ 1 ng/ml, 72 hours): approximately 16 fold | expression of αSMA and calponin ([4]; 250 nM, 72 hours): lower than vehicle levels | expression of αSMA and calponin ([4]; 250 nM, 72 hours, listed as Salinomycin): inhibited expression of αSMA and calponin | TGFβ-dependent expression of alpha smooth muscle actin, calponin and collagen ([4]; 250 nM, primary human fibroblasts): blocked | expression of αSMA and calponin, dose dependence ([4]; TGFβ 1 ng/ml, 72 hours): dose dependent manner | expression of αSMA and calponin, dose dependence ([4]; TGFβ 1 ng/ml, 72 hours, listed as Salinomycin): dose-dependent decrease | expression of myofibroblast markers αSMA and calponin ([4]; 100 and 200 nM, TGFβ 1 ng/ml, 72 hours, densitometry): below baseline levels | reduction of phospho-p38 levels ([5]; 5 hours): more than 2 fold | reduction of phospho-p38 levels ([5]; 24 hours): 10 fold | phospho-p38 levels ([5]; 5 hours TGFβ treatment): completely blocked | inhibition of phospho-p38 ([5]; 24 hours TGFβ treatment): 80% | phosphorylation of p38 ([5]; control plasmid, TGFβ 24 hours): blocks phosphorylation of p38 | TGFβ induced expression of αSMA and calponin ([6]; MKK6(glu) expressing cells): attenuated the ability of salinomycin to block | TGFβ induced expression of αSMA and calponin ([6]; control GFP expressing cells): blocked their induction | formation of myofibroblasts (cell images) [7]: not in samples treated with HCPT or SNC; also recorded: not in samples with HCPT or salinomycin (SNC)
